Measurements reported in patent US9868937B2, “Cell and gene based methods to improve cardiac function” (University of Washington, priority 2011, dated 2018).
“Also recorded” adds a separate entry of the source.

System: mouse aortic smooth muscle
Test: Mouse aortic smooth muscle contraction in skinned muscle strips with dATP vs. ATP
Assay type: biochemical
From the text: dATP has no affect on mouse aortic smooth muscle force development. To begin studying potential systemic effects of elevated dATP, we collaborated with Dr. Frank Brozovich (Mayo Clinic) to determine if dATP affects mouse aortic smooth muscle contraction.

SMILES: Nc1ncnc2c1ncn2[C@H]1C[C@H](O)[C@@H](COP(=O)(O)OP(=O)(O)OP(=O)(O)O)O1 [dATP, 2 deoxy-ATP]
- level of myosin light chain phosphorylation (control measurements (data not shown)): did not change
- aortic smooth muscle contraction (dATP vs. ATP as the contractile substrate): did not differ; also recorded: did not alter contraction
